The text below walks through data of ChEMBL document CHEMBL1201862, “PubChem BioAssay data set” (2004).

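Tested at 5 concentrations; 48 h exposure; 96-well plates; endpoints linearly interpolated, else capped at highest concentration. Abbreviation: GI50, concentration required for 50% inhibition of growth.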 Activity calls are given as the source filed them. No stated cut-off is given here; in the data, active = GI50 up to about 1.1 µM and inactive = higher.

Test systems include 786-0; ACHN; COLO 205; DU-145; HOP-62; HT-29; KM12; M14; MDA-MB-231; NCI-H23; NCI/ADR-RES; OVCAR-3; OVCAR-8; PC-3; SF-539; SK-MEL-28; SK-OV-3; SNB-75; UO-31; Malme-3M.
What all share (experiment): NCI-60 cell line screen, 48 h

For the compound `CCCC1C2=C(C(=O)OC2=O)C2C(CC)CC3=C(C(=O)OC3=O)C12` (centres undefined), the GI50 in the assay on 786-0, with ACHN, in the assay on COLO 205, in the assay on DU-145, in the assay on HOP-62 and in the assay with HT-29 was > 100 µM (inactive) in each case. For the same compound, the GI50 with KM12, in the assay on M14, in the assay with MDA-MB-231, with NCI-H23, in the assay on NCI/ADR-RES and with OVCAR-3 was > 100 µM (inactive) each time. Moreover, the GI50 with OVCAR-8, in the assay on PC-3, in the assay with SF-539, in the assay on SK-MEL-28, in the assay on SK-OV-3 and with SNB-75 was > 100 µM (inactive) throughout. Besides, in the assay with UO-31, the GI50 is > 100 µM (inactive).

On to `CCCCC(=O)Oc1ccc2c(C)cc(=O)oc2c1`, for which the GI50 with 786-0, in the assay on ACHN, in the assay on COLO 205, with DU-145, in the assay on HOP-62 and in the assay with HT-29 was > 100 µM (inactive) in each case. For the same compound, the GI50 with KM12, in the assay on M14, with MDA-MB-231, in the assay with Malme-3M, in the assay on NCI-H23 and with NCI/ADR-RES was > 100 µM (inactive) each time. Also, the GI50 in the assay with OVCAR-3, in the assay with OVCAR-8, in the assay on PC-3, with SF-539, in the assay with SK-MEL-28 and in the assay on SNB-75 was > 100 µM (inactive) throughout. Moreover, the GI50 in the assay on UO-31 was > 100 µM (inactive).

On to `CN(C)CCNC1=Nc2ccccc2C(=O)N2CSCC12` (centres undefined), for which the GI50 in the assay with 786-0, with ACHN, in the assay with COLO 205, in the assay on DU-145, in the assay with HOP-62 and in the assay on HT-29 was > 100 µM (inactive) throughout. The GI50 in the assay with KM12, in the assay on M14, in the assay with MDA-MB-231, in the assay with Malme-3M, with NCI/ADR-RES and with OVCAR-3 was > 100 µM (inactive) in each case. Moreover, the GI50 with OVCAR-8, with PC-3, with SK-MEL-28, with SK-OV-3, in the assay on SNB-75 and in the assay with UO-31 was > 100 µM (inactive) throughout.

On to `COc1cccc(-c2cc(O)c3cc(N4CCN(C)CC4)ccc3n2)c1`, for which the GI50 in the assay on 786-0 is 2.96 µM (inactive); in the assay with ACHN it was 5.25 µM (inactive); in the assay on COLO 205, 1.67 µM (inactive); in the assay on DU-145, 3.21 µM (inactive); with HOP-62, 1.64 µM (inactive); with HT-29, 2.24 µM (inactive). In addition, the GI50 is 1.91 µM (inactive) in the assay with KM12; 1.99 µM (inactive) in the assay with M14; 3.34 µM (inactive) in the assay on MDA-MB-231; 0.641 µM (active) in the assay on Malme-3M; 2.54 µM (inactive) in the assay with NCI-H23; 1.47 µM (inactive) in the assay with NCI/ADR-RES. For the same compound, the GI50 in the assay on OVCAR-8 is 2.01 µM (inactive); in the assay with PC-3, 2.44 µM (inactive); with SF-539, 0.557 µM (active); in the assay with SK-MEL-28 it was 1.47 µM (inactive); in the assay with SK-OV-3 it was 2.82 µM (inactive); with SNB-75 it was 5.3 µM (inactive). In addition, the GI50 in the assay with UO-31 is 6.9 µM (inactive).

Consider `Cc1cc(-c2nc3c(F)cccc3s2)ccc1N`, for which the GI50 is 92.5 µM (inactive) in the assay with 786-0; 30 µM (inactive) in the assay with ACHN; 80.5 µM (inactive) in the assay on COLO 205; 52.4 µM (inactive) with DU-145; 62.5 µM (inactive) in the assay with HOP-62; 44.8 µM (inactive) in the assay with HT-29. In addition, the GI50 in the assay on KM12 was 38.9 µM (inactive); with M14, 97.5 µM (inactive); in the assay with MDA-MB-231 it was > 100 µM (inactive); in the assay with Malme-3M, 28.8 µM (inactive); in the assay on NCI-H23, 32.8 µM (inactive); with NCI/ADR-RES it was > 100 µM (inactive). Moreover, the GI50 in the assay on OVCAR-3 is > 100 µM (inactive); in the assay with OVCAR-8 it was > 100 µM (inactive); in the assay with PC-3, 97.5 µM (inactive); with SK-MEL-28, > 100 µM (inactive); in the assay on SK-OV-3, > 100 µM (inactive); in the assay with SNB-75, 52.1 µM (inactive). In the assay on UO-31, the GI50 was 12.4 µM (inactive).

Regarding `N#Cc1c(NCCc2ccc(F)cc2)c2ccccc2n2c1nc1ccccc12`, the GI50 with 786-0 is 4.46 µM (inactive); with ACHN, 9.18 µM (inactive); with COLO 205, 71.6 µM (inactive); in the assay with DU-145 it was 19.6 µM (inactive); in the assay on HOP-62, 5.27 µM (inactive); in the assay on HT-29, 14.9 µM (inactive). Further, the GI50 with KM12 was 23.2 µM (inactive); with M14, 42 µM (inactive); with MDA-MB-231, 10 µM (inactive); in the assay on NCI-H23, 13.1 µM (inactive); in the assay on NCI/ADR-RES, 12.3 µM (inactive); in the assay with OVCAR-3, 13.9 µM (inactive). For the same compound, the GI50 is 5.68 µM (inactive) in the assay with OVCAR-8; 13 µM (inactive) in the assay with PC-3; 9.27 µM (inactive) with SF-539; 40.6 µM (inactive) in the assay on SK-MEL-28; 20.1 µM (inactive) in the assay with SK-OV-3; 6.32 µM (inactive) in the assay on SNB-75. In addition, the GI50 in the assay with UO-31 is 13.7 µM (inactive).

On to `COc1ccc(S(=O)(=O)c2nnc(S(=O)(=O)Cc3ccccc3)s2)cc1`, for which the GI50 was 18.8 µM (inactive) in the assay with 786-0; 12.7 µM (inactive) in the assay with ACHN; 13 µM (inactive) in the assay on COLO 205; 17 µM (inactive) in the assay with DU-145; 30.3 µM (inactive) in the assay on HOP-62; 17.9 µM (inactive) in the assay on HT-29. Also, the GI50 with KM12 is 29.6 µM (inactive); in the assay on M14 it was 17.5 µM (inactive); in the assay on MDA-MB-231 it was 17.5 µM (inactive); in the assay on NCI-H23, 27.3 µM (inactive); in the assay with NCI/ADR-RES it was 43.7 µM (inactive); in the assay with OVCAR-3 it was 32.2 µM (inactive). The GI50 in the assay with OVCAR-8 was 21.9 µM (inactive); with PC-3, 21.1 µM (inactive); in the assay with SF-539, 12 µM (inactive); in the assay with SK-MEL-28 it was 20.5 µM (inactive); in the assay on SK-OV-3, 22.5 µM (inactive); in the assay on SNB-75, 16.4 µM (inactive). The GI50 with UO-31 is 21.6 µM (inactive).

On to `COc1ccc(/C=N/NS(=O)(=O)c2ccc(/C=C3\NC(=O)N(C)C3=O)cc2)cc1`, for which the GI50 was > 100 µM (inactive) in the assay with 786-0; > 100 µM (inactive) in the assay on ACHN; > 100 µM (inactive) with COLO 205; > 100 µM (inactive) with DU-145; 40.2 µM (inactive) in the assay on HOP-62; > 100 µM (inactive) in the assay with HT-29. Also, the GI50 with KM12 is > 100 µM (inactive); in the assay with M14 it was > 100 µM (inactive); with MDA-MB-231, 38.8 µM (inactive); in the assay with Malme-3M, > 100 µM (inactive); in the assay on NCI-H23, 92.9 µM (inactive); in the assay on NCI/ADR-RES, > 100 µM (inactive). Besides, the GI50 with OVCAR-3 is 40.6 µM (inactive); in the assay on OVCAR-8, 56.2 µM (inactive); in the assay with PC-3, 80.2 µM (inactive); in the assay with SK-MEL-28, > 100 µM (inactive); in the assay on SK-OV-3 it was > 100 µM (inactive); with SNB-75, 45.6 µM (inactive). In the assay with UO-31, the GI50 was 50.4 µM (inactive).

As for `Cc1cc(O)ccc1C1(c2ccc(F)cc2)OC(=O)c2ccccc21` (centres undefined), the GI50 with 786-0 was 8.47 µM (inactive); in the assay with ACHN, 4.17 µM (inactive); with COLO 205, 1.82 µM (inactive); with DU-145 it was 4.61 µM (inactive); in the assay with HOP-62, 5.65 µM (inactive); with HT-29, 5.09 µM (inactive). Besides, the GI50 is 13.6 µM (inactive) in the assay with M14; 7.01 µM (inactive) in the assay with MDA-MB-231; 12.7 µM (inactive) with Malme-3M; 0.787 µM (active) in the assay on NCI-H23; 0.415 µM (active) with NCI/ADR-RES; 0.236 µM (active) with OVCAR-3. Also, the GI50 was 0.413 µM (active) in the assay on OVCAR-8; 2.24 µM (inactive) in the assay with PC-3; 2.99 µM (inactive) with SF-539; 13.1 µM (inactive) in the assay with SK-MEL-28; 3.65 µM (inactive) with SK-OV-3; 1.93 µM (inactive) with SNB-75. Moreover, the GI50 in the assay on UO-31 is 4 µM (inactive).

`COC(=O)[C@@](C)(COC(=O)C(C)(C)C)NC(=O)OC(C)(C)C`: the GI50 with 786-0, in the assay with ACHN, in the assay with COLO 205, in the assay on DU-145, with HOP-62 and in the assay with HT-29 was > 100 µM (inactive) each time. The GI50 in the assay on KM12, in the assay with M14, in the assay with MDA-MB-231, with Malme-3M, in the assay on NCI-H23 and with NCI/ADR-RES was > 100 µM (inactive) throughout. Besides, the GI50 in the assay on OVCAR-8, in the assay with PC-3, in the assay with SF-539, with SK-MEL-28, in the assay on SK-OV-3 and with SNB-75 was > 100 µM (inactive) each time. For the same compound, the GI50 in the assay on UO-31 was > 100 µM (inactive).
